Measurements taken from US12661334B2, “Dietary butyrate and its uses” (SOCIETE DES PRODUITS NESTLE S.A., priority 2019, dated 2026).

Legend:
[1] = target: T1, porcine pancreatic lipase (PPL) (Sus scrofa, UniProt P00591); details: pig, 3 h, pH 11.5
T1 sequence (P00591 1-450): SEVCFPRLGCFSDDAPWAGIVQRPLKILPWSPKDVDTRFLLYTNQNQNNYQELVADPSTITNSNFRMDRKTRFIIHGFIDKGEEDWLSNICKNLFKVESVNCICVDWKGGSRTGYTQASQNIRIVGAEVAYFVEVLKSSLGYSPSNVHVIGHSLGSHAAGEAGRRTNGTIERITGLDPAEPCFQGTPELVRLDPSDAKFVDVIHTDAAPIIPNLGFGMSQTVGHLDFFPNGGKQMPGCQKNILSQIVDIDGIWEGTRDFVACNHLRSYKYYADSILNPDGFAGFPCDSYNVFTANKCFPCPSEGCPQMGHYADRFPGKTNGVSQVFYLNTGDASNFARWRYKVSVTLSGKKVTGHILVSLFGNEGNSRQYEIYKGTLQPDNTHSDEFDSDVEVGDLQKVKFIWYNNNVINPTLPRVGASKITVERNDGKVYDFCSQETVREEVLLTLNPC
T1 sequence (P02703 23-112 partner): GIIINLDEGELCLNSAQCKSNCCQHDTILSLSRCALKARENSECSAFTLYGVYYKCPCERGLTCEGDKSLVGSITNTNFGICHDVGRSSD
Description: Because many fatty acids are only partially ionised at pH 6.8, direct titration gives only partial picture of the extent of lipid digestion, instead back titration to pH 11.5 or GC-FAME analysis is required to estimate the full extent of digestion.

[2] = system: rabbit gastric lipase (RGL) followed by porcine pancreatic lipase (PPL)

Extent of digestion [1]: 101.5±0.9% | Total amount of acid released ([2]; rabbit (gastric lipase), pig (pancreatic lipase), 3 h, pH 6.8): 381 ± 20 µmol | Initial lipolysis rate in SIF ([2]; rabbit (gastric lipase), pig (pancreatic lipase), pH 6.8): 44.1 ± 8.8 µmol/min | Lipolysis by gastric lipase ([2]; rabbit, 90 min, 19 mg/mL, pH 5.5): ~60%
SMILES: CCCC(=O)OCC(COC(=O)CCC)OC(=O)CCC [tributyrin]
